Data published in PubChem BioAssay (NCI).
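Compound exposure: 48 hours, 5 concentrations, 96-well plates. At the TGI there is no net growth.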 *1 amine or outer side, *2 acyl side, *3 side chain or, on linkers, in order; H or OH if unused. Where a SMILES comes first, the peptide text is derived from it. Bridges are numbered along the chain shown (N, C = ends). [ ]: non-standard residue; d: D form. The star is where a group is joined. ξ: configuration not given here. X34 = O=C(C(CCCCNO[*:3])N[*:1])[*:2]; Fmoc = O=C(OCC1c2ccccc2-c2ccccc21)*; ξW = NC(Cc1c[nH]c2ccccc12)C(=O)O; Boc = CC(C)(C)OC(=O)*; ξP = O=C(O)C1CCCN1

How the values were obtained:
Assay in all cases: NCI-60 cell line screen, 48 h
[1] = tested on: A498 renal
[2] = tested on: BT-549 breast
[3] = tested on: CAKI-1 renal
[4] = tested on: HL-60(TB) leukemia
[5] = tested on: MDA-MB-435
[6] = tested on: NCI-H23 lung
[7] = tested on: OVCAR-5 ovarian
[8] = tested on: SNB-19 CNS

SMILES	TGI [1] [µM]	TGI [2] [µM]	TGI [3] [µM]	TGI [4] [µM]	TGI [5] [µM]	TGI [6] [µM]	TGI [7] [µM]	TGI [8] [µM]
COc1ccc(N2C(=O)C3c4[nH]c5ccc(OCc6ccccc6)cc5c4C4CCC(C(C)(C)C)CC4C3C2=O)cc1 (stereo not given)	> 100	> 100	> 100	> 100	> 100	> 100	> 100	> 100
O=C1/C(=C/c2ccccc2)N=C(c2ccccc2)N1n1c(-c2ccccc2)nc2ccccc2c1=O	> 100	> 100		> 100	> 100	> 100	> 100	> 100
NC(C(F)(F)F)(C(F)(F)F)P(=O)(Cc1ccccc1)Cc1ccccc1		> 100	> 100	> 100	> 100	> 100	> 100	> 100
CCCCCCCCCCCCCCCCCCNc1ccn(C2OC(COP(=O)(O)OCC3OC(n4ccc(NC(=O)CCCCCCCCCCCCCCCCC)nc4=O)C(OC(C)=O)C3OC(C)=O)C(OC(C)=O)C2OC(C)=O)c(=O)n1 (stereo not given)	> 100	> 100	> 100	> 100	> 100	> 100	> 100	> 100
CC1(C)OCC(COC(=O)C=[N+]=[N-])O1 (stereo not given)	> 100	> 100	> 100	> 100	> 100	> 100	> 100	> 100
Nc1nc2cc3nc(N)c(N)nc3cc2nc1N	> 100	> 100	> 100	> 100	> 100	> 100	> 100	> 100
S=C(N/N=C\C=N/NC(=S)N1CCCCC1)N1CCCCC1	> 100	> 100	> 100		> 100	> 40.1	> 100	> 100
CC(O[Si](c1ccccc1)(c1ccccc1)C(C)(C)C)[C@H](NC(=O)OC(C)(C)C)C(=O)O[Si](c1ccccc1)(c1ccccc1)C(C)(C)C (stereo not given in full)			27	31		26.1	30.4	29.8
CC1(O)CC(C(F)(F)F)(C(F)(F)F)OC1=O (stereo not given)	> 10	> 10	> 10		> 10	> 10	> 10	> 10
COc1cc(O)c(/C=N/N=C(\N)NO)c(OC)c1	> 10	> 10	> 10	> 10	> 10	> 10	> 10	> 10
CC(C)c1ccc2[nH]c(O)c(-c3[nH]c4ccccc4c3N=O)c2c1	9.29	19.4	22.9		20.5	16.1	30.5	36.1
O=C(/C=C/c1ccc(O)c([N+](=O)[O-])c1)CC(=O)/C=C/c1ccc(O)c([N+](=O)[O-])c1		> 100		44.6	> 100	> 100	> 100	> 100
CN(C)CCCOc1nc2c(c(=O)n(C)c(=O)n2C)n1C (tested in a mixture with another compound)	> 100	> 100	66.3		> 100	97.6	> 100	> 100
COc1ccc(C2CC(c3c(O)ccc4ccccc34)=NN2c2ccc([N+](=O)[O-])cc2[N+](=O)[O-])cc1OC (stereo not given)	35.9	> 100	69.1		> 100	> 85.4	> 90.6	> 60.3
COc1ccc(-c2cc(-c3ccco3)c(C#N)c(=S)n2C2OC(COC(C)=O)C(OC(C)=O)C(OC(C)=O)C2OC(C)=O)cc1 (stereo not given)		8.23	13.9	20.7	28.2		30.9	19.1
CC(C)(C)C1=C(Br)C(Br)(C(C)(C)C)OP1(=O)c1ccccc1 (stereo not given)	> 100		> 100	> 100	> 100	> 100	> 100	> 100
NC(=O)N/N=C(\Cc1nc2ccc(Cl)cc2[nH]c1=O)C(=O)Nc1ccc(Cl)cc1Cl	> 100	> 100	> 100	> 100	> 100	> 100	> 100	> 100
CC(C)(C)c1ccc2c(c1)CNCCNCc1cc(C(C)(C)C)ccc1OCC1(CO2)COc2ccc(C(C)(C)C)cc2CNCCNCc2cc(C(C)(C)C)ccc2OC1	2.83		2.74	0.475	1	2.59	3.06	2
O=C(CC(=O)n1nc(-c2ccccc2)c(N=Nc2ccccc2C(=O)O)c1-c1ccccc1)Nc1ccc(Cl)cc1		93		40.9		93.9	> 100	81.8
OCC1CCCCCCCCCCC12SCCCS2 (stereo not given)		> 100	> 100	> 100	> 100	> 100	> 100	> 100
CCOP(=O)(OCC)/C(C#N)=C/c1cnc(-c2ccccc2)[nH]1	> 100	> 100	> 100	> 100	80.9	> 100	> 100	> 100
COc1cc2c(cc1OC)C1=Cc3cc(OC)c(OC)cc3C(C)N1C=C2 (stereo not given)	> 100	> 100		> 100	> 100	> 100	> 100	> 100
COc1ccccc1Nc1nc(N)nc(N)c1N=O	> 100	> 100		> 100	> 100	> 100	> 100	> 100
O=C(Nc1ccc(Br)cc1)c1c(-c2ccccc2)c2ccc(O)cc2oc1=O	> 10		> 10	> 10	> 10	> 10	> 10	
OC1C2[C@@H](O)CCCN2C[C@@H](O)[C@H]1O (stereo not given in full)	> 100	> 100	> 100	> 100	> 100	> 100	> 100	> 100
O=C(CCCCCCCCC(=O)NN1C(=O)/C(=C\c2ccc(O)c(O)c2)SC1c1ccc(Cl)cc1)NN1C(=O)/C(=C\c2ccc(O)c(O)c2)SC1c1ccc(Cl)cc1 (stereo not given)	69	> 100	> 88.1		> 100	41.8	> 100	> 53.1

SMILES	TGI [1] [µM]	TGI [2] [µM]	TGI [3] [µM]	TGI [4] [µM]	TGI [5] [µM]	TGI [6] [µM]	TGI [7] [µM]	TGI [8] [µM]
O=C(O)c1c2c(cc3c1CC1(Cc4ccccc4C1)C3)CCC2	> 100	> 100	> 100	> 100	> 100	> 100	> 100	
CC[C@]1(Cc2ccc(OC)c(OC)c2)CN(S(=O)(=O)c2ccc(C)cc2)C[C@@H]1OC(C)=O	> 100		> 100	> 100	> 100	> 100	> 100	> 100
COC(=O)CNC(=O)C(Cc1ccccc1)NC(=O)C(CCSC)NC(=O)C(Cc1ccc(O)cc1)NC(=O)OC(C)(C)C (stereo not given) (Boc-YMFG-OMe; configuration not given here)	> 100	> 100	> 100	> 100	> 100	> 100	> 100	> 100
COc1cc(-c2cc(=O)c3cc4c(cc3[nH]2)OCO4)cc(OC)c1O			> 10	> 10	> 10	> 10	> 10	> 10
O=C(NNC(=S)Nc1ccc(Cl)cc1)c1cc(-c2ccccc2)nc2ccccc12		19.2	20.6		11.4	17.2	24.4	21.7
Nc1ccc2nc(-c3ccccn3)c(-c3ccccn3)nc2c1	> 100	> 100	> 100	> 100	> 100		> 100	> 100
Cc1c(-c2nc3ccccc3[nH]2)c(=O)n(-c2ccccc2)n1C		> 100	> 100	> 100	> 100	> 100		> 100
C=C(C)C12CC(COC(=O)c3ccccc3)C34OC5(OC1C3C1OC1(CO)C(O)C1(O)C(OC(=O)c3ccccc3)C(C)C(C(C)CCCCCCC5O)C14)O2 (stereo not given)	> 100	> 100	> 100		> 79.3	> 100	> 100	> 100
O=C1CCC[C@@H]2NC[C@@H](c3ccc4c(c3)OCO4)[C@H]12	> 25		> 25	> 25	> 25	> 25	> 25	> 25
Cc1cc(N(CCC#N)CCC#N)ccc1/C=N/NC(=O)c1cc(Cl)ccc1O	> 100		> 100	> 100	> 100	> 100	> 100	
Cc1nnc(Nc2ccccc2)o1			> 100	> 100	> 100	> 100	> 100	> 100
CCN(CC)CCc1c2c(nc3ccccc13)C(=O)c1cccnc1C2=O	5.29	7.56	4.9	1.41	4.99	8.53	25.4	
C[C@@]12[C@H]3CC[C@@H]1[C@H](O)C(=O)N2CC3	> 100		> 100	> 100	> 100	> 100	> 100	> 100
O=C(O)CSc1nnc(COc2ccc(Cl)cc2)n1-c1ccccc1	> 100		> 100	> 100	> 100	> 100	> 100	> 100
Cc1ccc(-c2c(C#N)c(-c3ccccc3)n(NS(=O)(=O)c3ccccc3)c(=O)c2C#N)cc1	> 100	> 100	> 100		> 100		> 100	> 100
NC(=O)CNC(=O)C1CCCN1C(=O)C1CCCCNOC(=O)CC[C@@H](NC(=O)OCC2c3ccccc3-c3ccccc32)C(=O)NC(Cc2c[nH]c3ccccc23)C(=O)N1 (stereo not given in full) (Fmoc-[dE][ξW][X34][ξP]G-NH2; ester 1-3)		> 100	> 100	> 100	> 100	> 100	> 100	> 100
COc1cccc(-c2cc(=O)c3ccccc3o2)c1N		> 100	> 100	> 100	> 100	> 100	> 100	> 100
CSc1nc(Cl)c2c(n1)Sc1nc3cc4c(cc3n1C2O)OCCO4 (stereo not given)	15.9	23.3	1.21		> 100	19.9	36	3.99
O=C(CN1c2ccccc2Sc2ccccc21)N1CCNCC1	> 100	> 100		> 100	> 100	> 100	> 100	> 100
CCOC(=O)CNC(=O)C(CSCc1ccc(Br)cc1)NC(=O)CCC(N)C(=O)OCC (stereo not given)		> 50	> 50		> 50	> 50	> 50	> 50
CN(C)/N=N/c1nc2c(c(=O)n(C)c(=O)n2C)n1C	> 100	> 100	> 100		> 100		> 100	> 100
COc1cccc2c(N)c3cccc(C(=O)NCCN(C)C)c3nc12	1.15	4.95	2.21		1.18	1.02	3.4	1.44
Nc1cc(CO)cc(Nc2nc3ccc(Cl)cc3c3[nH]c4ccccc4c23)c1		24.6	8.33	52.7	15.3	40	17.6	44.9
CCCc1cc(=O)c2c(C)c3[nH]c4ccc(Cl)cc4c3c(C)c2[nH]1	2.92		4.37		3.11	10.5	5.58	8.9
CC(CN1c2ccccc2Sc2ccccc21)N(C)C (stereo not given)	34.4		34.1	39.9	31.2	38.2	32.8	33
